# Read-outs that look alike come from different tables or passages of the source.
# Experiments:
# OXA-23 β-lactamase = target: T1, OXA-23 β-lactamase (Acinetobacter baumannii, UniProt Q9L4P2); test: β-lactamase enzyme inhibition assay (nitrocefin substrate), OXA-23 crude extract; type: biochemical
# T1 construct: crude β-lactamase extracts were prepared from 20 ml overnight cultures; endogenous in cells; host or cells: Acinetobacter baumannii cells containing OXA-23 (crude freeze-thaw extract)
# In short: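 Crude enzyme came from freeze-thaw extracts of mid-log OXA-23-carrying A. baumannii grown in MH-II broth at 37° C. Inhibitors (100–0.005 μM in PBS pH 7.0) were preincubated with the enzyme for 10 min at 37° C, then 100 μM nitrocefin (final) was added and read kinetically at 486 nm for 10 min. IC50 was taken from initial hydrolysis rates relative to uninhibited controls.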
# [1] = tested on: K. pneumoniae expressing the Class A carbapenemase KPC-2; test: microbe, parasite or virus in culture; type: cell-based; settings: in presence of Ceftazidime 8 μg/ml (Examples 1-56)
# In short: (§1)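 Each strain, maintained under 50 μg/mL ampicillin selection, was exposed to twofold compound dilutions (final range 8 μg/mL to 0.015 μg/ml) combined with a β-lactam antibiotic in cation-adjusted Mueller Hinton broth. The MIC was judged visually following overnight (16-20 h) incubation at 37° C.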
# [2] = tested on: K. pneumoniae expressing the Class A Extended Spectrum Beta-Lactamase (ESBL) CTX-M-15; test: In vitro antibacterial assay of β-lactamase inhibition (broth microdilution MIC), K. pneumoniae CTX-M-15; type: cell-based; settings: in presence of Ceftazidime 8 μg/ml (Examples 1-56)
# In short: as §1
# [3] = tested on: P. aeruginosa expressing the Class B metallo β-lactamase VIM-2; test: In vitro antibacterial assay of β-lactamase inhibition (broth microdilution MIC), P. aeruginosa VIM-2; type: cell-based; settings: in presence of Ceftazidime 16 μg/mL (Examples 1-56)
# In short: as §1
# KPC-2 β-lactamase = target: T2, KPC-2 β-lactamase (Klebsiella pneumoniae, UniProt Q9F663); test: β-lactamase enzyme inhibition assay (nitrocefin substrate), KPC-2; type: biochemical
# T2 construct: expressed as native untagged proteins; made in house; host or cells: E. coli BL21(DE3)
# T2 sequence (Q9F663 25-293 limits assumed): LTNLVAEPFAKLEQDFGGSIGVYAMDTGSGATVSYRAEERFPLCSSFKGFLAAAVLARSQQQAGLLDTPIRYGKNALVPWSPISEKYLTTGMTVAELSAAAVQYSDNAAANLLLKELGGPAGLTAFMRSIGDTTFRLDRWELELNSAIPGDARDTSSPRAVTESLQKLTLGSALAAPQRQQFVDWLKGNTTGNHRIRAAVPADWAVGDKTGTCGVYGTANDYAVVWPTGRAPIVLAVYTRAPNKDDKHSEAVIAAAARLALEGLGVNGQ
# In short: (§2)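 Enzyme was first mixed with serially diluted compound (100 to 0.005 μM) in PBS pH 7.0 and held 10 min at 37 °C. Next, nitrocefin was dispensed to 100 μM final, and hydrolysis was followed at 486 nm for 10 min. Percent inhibition was then calculated from maximum rates and fitted to an IC50.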
# [4] = target: T3, VIM-2 metallo β-lactamase (Pseudomonas aeruginosa, UniProt Q9K2N0); test: β-lactamase enzyme inhibition assay (nitrocefin substrate), VIM-2; type: biochemical
# T3 construct: made in house
# Procedure: Isolation of β-lactamases. For SHV-5, p99 AmpC, KPC-2 and CTX-M15 β-lactamases, E. coli BL21(DE3) bacterial cells carrying expression plasmids (expressed as native untagged proteins) for the individual β-lactamases were grown in 1 L of Superbroth (Teknova Inc. Hollister, Calif.) supplemented with 100 μg/ml kanamycin and 1×5052 (0.5% glycerol, 0.05% glucose and 0.2% α-lactose) at 35° C. for 18-20 hours. Cells were harvested by centrifugation (4,000×g, 4° C., 20 min), and resuspended in 50 ml of 10 mM HEPES pH 7.5 (1/20 of the initial volume). The cells were lysed by sonication (5 pulses of 45 seconds) at 45 W on ice. The lysates were clarified by centrifugation at 10,000×g for 40 minutes at 4° C. Samples were diluted 5-fold in 50 mM sodium acetate pH 5.0, stored overnight at 4° C., after which they were centrifuged at 10,000×g for 30 minutes to clarify, and filtered through 0.45 μm filters. The samples were loaded onto a 5 ml Capto S sepharose cation exchange column (GE Healthcare) pre-equilibrated with 50 mM sodium acetate pH 5.0. The column was washed with 5 column volumes of 50 mM sodium acetate pH 5.0 to wash out unbound protein and a linear gradient of NaCl (0 to 500 mM) was used to elute the protein (over 16 CV) from the column. Fractions were assayed for β-lactamase activity using Centa (Calbiochem, Gibbstown, N.J.) as a reporter β-lactamase substrate for activity in the isolated fractions. Active fractions were pooled, concentrated and further purified by gel filtration chromatography on a Superdex 75 prep grade gel filtration column (GE Healthcare, Piscataway, N.J.) pre-equilibrated in 50 mM Hepes pH 7.5, 150 mM NaCl. Active fractions were pooled concentrated, quantitated by BCA protein determination (Thermo Scientific, Rockford, Ill.), and frozen at −80° C. in 20% glycerol until use.
# For VIM-2 metallo (β-lactamase, the procedure was identical with the following exceptions: 1) the protein was not pH adjusted to pH 5 with 50 mM sodium acetate, 2) the chromatography step was changed to a 5 ml Q sepharose anion exchange column pre-equilibrated with 50 mM Hepes pH 7.5, and 3) elution of the protein was achieved by a linear gradient of NaCl (0-600 mM). Finally, the VIM-2 purification required a second run (3rd step) on the Q sepharose anion exchange column to achieve acceptable purity (>90%).
# β-lactamase Inhibition. To determine the level of inhibition of β-lactamase enzymes, compounds were diluted in PBS at pH 7.0 to yield concentrations between 100 and 0.005 μM in microtiter plates. An equal volume of diluted enzyme stock was added, and the plates were incubated at 37° C. for 10 min. Nitrocefin solution was then dispensed as substrate into each well at a final concentration of 100 μM, and the plates were immediately read with the kinetic program at 486 nm for 10 min on the SPECTRAMAX® Plus^384 (high-throughput microplate spectrophotometer; Molecular Devices Corp., Sunnyvale, Calif.). Maximum rates of metabolism were then compared to those in control wells (without inhibitors), and percentages of enzyme inhibition were calculated for each concentration of inhibitor. The concentration of inhibitor needed to reduce the initial rate of hydrolysis of substrate by 50% (IC50) was calculated as the residual activity of β-lactamase at 486 nm using the SoftMax Pro 5.0 software (Molecular Devices Corp.).
# Using the methodology described above, examples of the current invention were evaluated for their ability to inhibit β-lactamase enzymes. The results of these assays are summarized in Table 2 for representative enzymes across different subtypes (note SHV-5 and CTXM-15 exemplify different subclasses of Ambler Class A Extended Spectrum Beta Lactamases, KPC-2 exemplifies Class A carbapenemases, P99 represents chromosomal Class C AmpC, VIM-2 exemplifies subclass B1 of metallo-β-lactamases, and OXA-23 represents chromosome-encoded Class D oxacillin-hydrolyzing β-lactamases), NT=not tested.
# p99 AmpC β-lactamase = target: T4, p99 AmpC β-lactamase (Enterobacter cloacae, UniProt P05364); test: β-lactamase enzyme inhibition assay (nitrocefin substrate), P99 AmpC; type: biochemical
# T4 construct: expressed as native untagged proteins; made in house; host or cells: E. coli BL21(DE3)
# T4 sequence (P05364 21-381): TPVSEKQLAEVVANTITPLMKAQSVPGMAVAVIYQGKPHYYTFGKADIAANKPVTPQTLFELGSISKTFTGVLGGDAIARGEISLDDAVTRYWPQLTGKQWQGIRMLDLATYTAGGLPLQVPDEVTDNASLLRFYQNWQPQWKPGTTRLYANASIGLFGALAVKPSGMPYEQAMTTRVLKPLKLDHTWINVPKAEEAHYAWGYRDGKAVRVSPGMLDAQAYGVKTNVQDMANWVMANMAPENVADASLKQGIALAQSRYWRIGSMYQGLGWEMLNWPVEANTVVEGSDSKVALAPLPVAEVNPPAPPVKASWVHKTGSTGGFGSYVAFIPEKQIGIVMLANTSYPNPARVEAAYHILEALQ
# In short: as §2
# SHV-5 β-lactamase = target: T5, SHV-5 β-lactamase (Klebsiella pneumoniae, UniProt P0A3M1); test: β-lactamase enzyme inhibition assay (nitrocefin substrate), SHV-5; type: biochemical
# T5 construct: expressed as native untagged proteins; made in house; host or cells: E. coli BL21(DE3)
# T5 sequence (P0A3M1 22-286): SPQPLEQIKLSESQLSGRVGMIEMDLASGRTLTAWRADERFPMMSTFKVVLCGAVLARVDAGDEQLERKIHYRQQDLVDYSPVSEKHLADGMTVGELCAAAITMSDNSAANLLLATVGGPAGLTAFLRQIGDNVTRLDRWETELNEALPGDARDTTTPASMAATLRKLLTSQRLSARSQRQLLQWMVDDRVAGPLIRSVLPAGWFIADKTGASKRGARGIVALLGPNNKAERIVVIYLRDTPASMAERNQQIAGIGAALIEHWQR
# In short: as §2
# [5] = tested on: E. coli expressing the Class A ESBL SHV-5; test: In vitro antibacterial assay of β-lactamase inhibition (broth microdilution MIC), E. coli SHV-5; type: cell-based; settings: in presence of Ceftazidime 8 μg/ml (Examples 1-56)
# In short: as §1
# CTX-M15 β-lactamase = target: T6, CTX-M15 β-lactamase (Escherichia coli, UniProt Q9EXV5); test: β-lactamase enzyme inhibition assay (nitrocefin substrate), CTXM-15; type: biochemical
# T6 construct: expressed as native untagged proteins; made in house; host or cells: E. coli BL21(DE3)
# T6 sequence (Q9EXV5 entry or part of it): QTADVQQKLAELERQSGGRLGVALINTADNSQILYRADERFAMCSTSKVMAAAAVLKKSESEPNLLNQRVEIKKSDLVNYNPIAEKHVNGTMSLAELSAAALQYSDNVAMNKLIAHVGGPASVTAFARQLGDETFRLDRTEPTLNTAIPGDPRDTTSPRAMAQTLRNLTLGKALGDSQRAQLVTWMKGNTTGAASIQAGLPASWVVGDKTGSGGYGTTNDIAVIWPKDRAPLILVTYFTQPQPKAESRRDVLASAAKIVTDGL
# In short: as §2
# [6] = tested on: E. cloacae expressing the Class C P99+; test: In vitro antibacterial assay of β-lactamase inhibition (broth microdilution MIC), E. cloacae P99+; type: cell-based; settings: in presence of Ceftazidime 8 μg/ml (Examples 1-56)
# In short: as §1
# [7] = nitrocefin 100 μM, 37° C., PBS pH 7.0, read-out: OXA-23 IC50
# [8] = nitrocefin 100 μM, 37° C., PBS pH 7.0, read-out: VIM-2 IC50
# [9] = nitrocefin 100 μM, 37° C., PBS pH 7.0, read-out: P99 AmpC IC50
# T1 sequence (Q9L4P2 18-273): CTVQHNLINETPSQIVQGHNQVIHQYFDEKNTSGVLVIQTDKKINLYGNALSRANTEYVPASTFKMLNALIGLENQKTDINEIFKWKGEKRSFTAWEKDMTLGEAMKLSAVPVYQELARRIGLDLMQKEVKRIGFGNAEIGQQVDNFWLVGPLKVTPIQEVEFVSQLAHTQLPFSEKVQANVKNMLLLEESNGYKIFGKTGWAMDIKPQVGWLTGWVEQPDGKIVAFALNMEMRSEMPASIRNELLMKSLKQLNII
Structure (SMILES),IC50 (OXA-23 β-lactamase; [7]),"MIC of example compound, K. pneumoniae KPC-2 [1]","MIC of example compound, K. pneumoniae CTX-M-15 [2]","MIC of example compound, P. aeruginosa VIM-2 [3]",IC50 (KPC-2 β-lactamase),"IC50 [4, 8]",IC50 (p99 AmpC β-lactamase; [9]),IC50 (SHV-5 β-lactamase),"MIC of example compound, E. coli SHV-5 [5]",IC50 (CTX-M15 β-lactamase),"MIC of example compound, E. cloacae P99+ [6]",IC50 (OXA-23 β-lactamase),IC50 [4],IC50 (p99 AmpC β-lactamase)
"Cl.O=C(N[C@@H](Cc1cccc(C(=O)O)c1O)B(O)O)c1ccc(N2CCNCC2)nc1 [Example 9, (2R)-3-{2-[(2-(1-piperazinyl)-pyridine-5-carbonyl)-amino]-2-borono-ethyl}-2-hydroxy-benzoic acid hydrochloride]",> 1000 nM,<0.01 µg/mL,1 µg/mL,>8 µg/mL,6 nM,242 nM,2 nM,> 1000 nM,4 µg/mL,83 nM,0.25 µg/mL,–,–,–
"CC(=O)Nc1ccc(C(=O)N[C@@H](Cc2cccc(C(=O)O)c2O)B(O)O)cn1 [Example 10, (2R)-3-{2-[(2-(acetylamino)-pyridine-5-carbonyl)-amino]-2-borono-ethyl}-2-hydroxy-benzoic acid]",580 nM,0.01 µg/mL,0.25 µg/mL,>8 µg/mL,4 nM,680 nM,3 nM,319 nM,1 µg/mL,3 nM,0.5 µg/mL,–,–,–
"CNCc1ccc(C(=O)N[C@@H](Cc2cccc(C(=O)O)c2O)B(O)O)cc1.Cl [Example 11, (1R)-[4-(methylamino)methyl]-benzoylamino-(3-carboxy-2-hydroxy)benzyl-methyl boronic acid hydrochloride]",> 1000 nM,<0.01 µg/mL,1 µg/mL,8 µg/mL,4 nM,57 nM,1 nM,> 1000 nM,8 µg/mL,4 nM,0.25 µg/mL,–,–,–
"Cl.O=C(N[C@@H](Cc1cccc(C(=O)O)c1O)B(O)O)c1ccc(CN2CCCC(C(=O)O)C2)cc1 (stereo partly drawn) [Example 12, (1R)-[4-(piperidine-3-carboxylic acid)-methyl]-benzoylamino-(3-carboxy-2-hydroxy)benzyl-methyl boronic acid hydrochloride]",> 1000 nM,0.03 µg/mL,1 µg/mL,>8 µg/mL,11 nM,930 nM,900 nM,870 nM,4 µg/mL,3 nM,2 µg/mL,–,–,–
"CC[N+](CC)(CC)Cc1ccc(C(=O)N[C@@H](Cc2cccc(C(=O)O)c2O)B(O)O)cc1 [Example 13, (1R)-(4-(triethylammonium)methyl)-benzoylamino-(3-carboxy-2-hydroxy)benzyl-methyl boronic acid bromide]",–,0.25 µg/mL,>8 µg/mL,>8 µg/mL,3 nM,–,–,> 1000 nM,>8 µg/mL,14 nM,>8 µg/mL,> 1000 nM,340 nM,4 nM
"O=C(N[C@@H](Cc1cccc(C(=O)O)c1O)B(O)O)c1ccc(C[n+]2ccccc2)cc1 [Example 14, (1R)-[4-(pyridinium)-methyl]-benzoylamino-(3-carboxy-2-hydroxy)benzyl-methyl boronic acid chloride]",–,0.01 µg/mL,>8 µg/mL,>8 µg/mL,21 nM,–,–,> 1000 nM,>8 µg/mL,1 nM,0.5 µg/mL,> 1000 nM,360 nM,29 nM

# From patent US20100292185A1, “BETA-LACTAMASE INHIBITORS” (priority 2009, published 2010)
